Assay [1] deals with LOX Human Melanoma Xenograph. As to the kind of experiment: Dolastatin 10 in murine in vivo system, LOX Human Melanoma Xenograph (Nude Mouse). The text has this:
(§1) Presently Dolastatin 10, a linear pentapeptide represents the most important member and is a potentially useful antineoplastic agent.

Assay [2] has as its system P388 Lymphocytic Leukemia. Briefly: Dolastatin 10 in murine in vivo system, P388 Lymphocytic Leukemia.
Description: as §1

For assay [3], the system named is OVCAR-3 Human Ovary Xenograph. Briefly: Dolastatin 10 in murine in vivo system, OVCAR-3 Human Ovary Xenograph Nude Mouse. The note with it: 40 μg/kg. The text has this: The synthesis of potentially useful peptides presents one of the most essential and promising approaches to new types of anticancer and immunosuppressant drugs. The Dolastatins, an unprecedented series of linear and cyclic antineoplastic and/or cytostatic peptides isolated from Indian Ocean sea hare Dolabella auricularia represent excellent leads for synthetic modification. The very productive sea hare Dolabella auricularia has produced a number of structurally distinct peptides with excellent antineoplastic activity. Presently Dolastatin 10, a linear pentapeptide represents the most important member and is a potentially useful antineoplastic agent. […] Recently the total synthesis and absolute configuration of this structurally unique and biologically active peptide was reported.

The subject of assay [4] is Human Mammary Xenograph. Briefly: Dolastatin 10 in murine in vivo system, Human Mammary Xenograph Nude Mouse.
Description: as §1

The subject of assay [5] is SF-295. As to the kind of experiment: Inhibition of human cancer cell line SF-295 (CNS). The format is cell-based. The text has this:
(§2) Current research in the control of cancer in the United States is coordinated by the National Cancer Institute (NCI). To determine whether a substance has anti-cancer properties, the NCI has established a systematic protocol. […] The protocol, and the established statistical means for analyzing the results obtained by the standardized testing are fully described in the literature. See: Boyd, Dr. Michael R., Principles & Practice of Oncology, PPO Updates, Volume 3, Number 10, October 1989, for an in depth description of the testing protocol; and Paull, K. D., "Display and Analysis of Patterns of Differential Activity of Drugs Against Human Tumor Cell Lines; Development of Mean Graph and COMPARE Algorithm", Journal of the National Cancer Institute Reports, Vol. 81, No. 14, Page 1088, Jul. 14, 1989 for a description of the methods of statistical analysis. Both of these references are incorporated herein by this reference thereto.
(§3) The dipeptides (1a-1e) were in turn prepared by coupling dolaproine (5) with the respective amino acids. All compounds were characterized (physical and spectroscopic data) and tested against the murine lymphocytic P388 leukemia cell line as well as six major human cancer cell lines.

Assay [6] relates to OVCAR-3. Briefly: Inhibition of human cancer cell line OVCAR-3 (Ovarian). The format is cell-based.
Description: as §2, §3

In assay [7] the test system is KM20L2. Briefly: Inhibition of human cancer cell line KM20L2 (Colon). It is filed as cell-based.
Description: as §2, §3

Assay [8] concerns A498. As to the kind of experiment: Inhibition of human cancer cell line A498 (Renal). The format is cell-based.
Description: as §2, §3

The subject of assay [9] is NCI-H460. Briefly: Inhibition of human cancer cell line NCI-H460 (Lung-NSC). It is filed as cell-based.
Description: as §2, §3

Assay [10] deals with murine lymphocytic P388 leukemia cell line. Briefly: Inhibition of murine lymphocytic P388 leukemia cell line. As to conditions: MOUSE LEUKEMIA P388. The format is cell-based.
Description: as §3

The test system of assay [11] is SK-MEL-3. Briefly: Inhibition of human cancer cell line SK-MEL-3 (Melanoma). It is filed as cell-based.
Description: as §2, §3

For orientation: TGI means the concentration at which net growth stops. Low values mean greater sensitivity of the cells, high ones lower sensitivity of the cells.

For the substance Dolastatin 10, the T/C in [1] (3.25 μg/kg) was 170; in [1] (6.5 μg/kg), 206; in assay [1] (13 μg/kg), 301; in assay [1] (26 μg/kg), 301; in assay [2] (3.25 μg/kg), 146; in assay [2] (6.5 μg/kg) it was 155. For the same substance, the T/C in [3] came out at 300; in assay [4] (6.25 μg/kg) it was 178; in [4] (13 μg/kg) it was 137.
For the substance “Dov-Val-Dil-Dap-Ile-OCH3 [pentapeptide 3d]”, the GI-50 in [5], in assay [6], in assay [7], in assay [8], in assay [9] and in [11] was less than 0.0001 µg/mL in each case. For the same substance, the LC-50 is more than 1 µg/mL in [5]; 0.043 µg/mL in assay [6]; more than 1 µg/mL in assay [7]; more than 1 µg/mL in assay [8]; more than 1 µg/mL in [9]; more than 1 µg/mL in assay [11]. The TGI is 170 ng/mL in assay [5]; less than 0.1 ng/mL in assay [6]; less than 0.1 ng/mL in [7]; less than 0.1 ng/mL in assay [8]; 0.88 ng/mL in assay [9]; less than 0.1 ng/mL in assay [11]. Further, the ED50 in [10] stood at 0.441 ng/mL.
As for “Dov-Val-Dil-Dap-Met-OCH3 [pentapeptide 3e]”, the GI-50 in assay [5], in assay [6], in assay [7], in assay [8], in [9] and in [11] was less than 0.0001 µg/mL throughout. Further, the LC-50 in assay [5], in assay [6], in assay [7], in [8], in assay [9] and in [11] was more than 1 µg/mL each time. Further, the TGI in assay [5] was 56 ng/mL; in [6], less than 0.1 ng/mL; in assay [7], 0.15 ng/mL; in [8] it was more than 1000 ng/mL; in [9] it was 130 ng/mL; in assay [11], more than 1000 ng/mL. In addition, the ED50 in [10] stood at 0.389 ng/mL.
With “Dov-Val-Dil-Dap-Phe-NH2 [pentapeptide 3b]”, the GI-50 was 0.00085 µg/mL in [5]; 0.0076 µg/mL in [6]; less than 0.0001 µg/mL in [7]; 0.00097 µg/mL in assay [8]; 0.000095 µg/mL in [9]; 0.00017 µg/mL in assay [11]. The LC-50 in assay [5] is more than 1 µg/mL; in assay [6] it was 0.066 µg/mL; in [7], 0.083 µg/mL; in assay [8], more than 1 µg/mL; in assay [9], more than 1 µg/mL; in [11] it was more than 1 µg/mL. Besides, the TGI in assay [5] was found to be 49 ng/mL; in [6], 3.7 ng/mL; in assay [7], 19 ng/mL; in assay [8] it was 6.2 ng/mL; in assay [9] it was 11 ng/mL; in assay [11] it was 12 ng/mL. Besides, the ED50 in [10] worked out at 19.5 ng/mL.
For “Dov-Val-Dil-Dap-Phe-OCH3 [pentapeptide 3a]”, the GI-50 in assay [5], in assay [6], in [7], in [8], in assay [9] and in assay [11] was less than 0.0001 µg/mL throughout. Further, the LC-50 in assay [5], in [6], in assay [7], in [8], in [9] and in [11] was more than 1 µg/mL each time. Moreover, the TGI in assay [5] is 0.17 ng/mL; in [6], 1.1 ng/mL; in assay [7], 1.1 ng/mL; in assay [8], 2.9 ng/mL; in assay [9] it was 11 ng/mL; in [11], 0.68 ng/mL. The substance further showed an ED50 in assay [10] of 66.7 ng/mL.
For “Dov-Val-Dil-Dap-Pro-OCH3 [pentapeptide 3c]”, the GI-50 in assay [5], in assay [6], in assay [7], in assay [8], in assay [9] and in [11] was less than 0.0001 µg/mL each time. The LC-50 in assay [5], in assay [6], in assay [7], in assay [8], in assay [9] and in [11] was more than 1 µg/mL each time. Moreover, the total growth inhibition concentration (TGI) is 2.4 ng/mL in assay [5]; less than 0.1 ng/mL in [6]; 2.2 ng/mL in [7]; 5.4 ng/mL in assay [8]; 1.3 ng/mL in assay [9]; less than 0.1 ng/mL in [11]. In [10], this substance yielded an ED50 of 8.8 ng/mL.

Source of the values: patent publication US5780588A, “Elucidation and synthesis of selected pentapeptides” (priority 1993, dated 1998).
